Measured values from patent publication US7423159B2, “Agent for preventing or treating neuropathy” (Takeda Pharmaceutical Company Limited, priority 2002, dated 2008).

What was measured:
rat C6 glioma cells = experiment: GDNF production promoting action in rat C6 glioma cells (ELISA of culture supernatant); type: cell-based; settings: Rattus norvegicus, C6 glioma, 48 h; concentration which causes 50% increase of GDNF relative to the control group; cultured 2 days with test compound; GDNF in culture supernatant by ELISA
Experimental: Using rat C6 glioma cells, the GDNF production promoting action of the compound of the present invention was evaluated.
Rat C6 glioma cells (ATCC) were grown in Dulbecco's Modified Eagle's Medium (DMEM) containing 10% FBS (Fetal Bovine Serum) in a collagen type 1 coated 75 cm^2 culture flask (SUMITOMO BAKELITE Co., Ltd.) until near confluent, detached by trypsin treatment and washed once with DMEM containing 10% FBS.
The cells after washing were diluted with 10% FBS-containing DMEM to a concentration of 5×10^4/mL and seeded at 0.3 mL/well in each well of collagen type 1 coated 48 well culture dish (SUMITOMO BAKELITE Co., Ltd.). After 3 days, the culture in the culture dish was placed in a 1% BSA (bovine serum albumin, Sigma)-containing DMEM medium supplemented with various concentrations of test compound, and further cultured for 2 days. The culture supernatant was recovered and preserved at −80° C. until measurement of GDNF.
The content of GDNF in the culture supernatant was measured by the following ELISA Method.
Anti-GDNF antibody (MAB212, R&D) was diluted with TBS (Tris buffered physiological saline: 25 mmol/L Tris-HCl (pH 8.0), 150 mmol/L NaCl) to 2 μg/mL and dispensed at 0.1 mL/well to each well of a 96-well immunoplate. The 96-well immunoplate was incubated overnight at 4° C. and washed once with TBS containing Tween 20 at 0.05% (hereinafter to be abbreviated as TBST). A blocking solution (TBS containing 1% BSA and 5% sucrose) was added at 0.2 mL/well to each well after washing, and the plate was incubated at room temperature for 1 hr., after which each well was washed twice with TBST. The culture supernatant (0.1 mL) of the aforementioned C6 cells was added to each well after washing and the plate was incubated at room temperature for 3 hrs., after which the wells were washed 5 times with TBST. The 500-fold diluted anti-GDNF antibody (G2791, Promega) was added by 0.1 mL to each well after washing, incubated at room temperature for 2 hrs. and washed 5 times with TBST. A 5000-fold diluted horseradish peroxidase-labeled anti-chicken IgY antibody (G1351, Promega) was added at 0.1 mL/well to each well after washing, incubated at room temperature for 2 hrs. and washed 5 times with TBST. A substrate solution (TMB substrate solution, BIO-RAD) was added at 0.1 mL/well to each well after washing and allowed to develop color at room temperature for 8 min. To stop the reaction, 0.1 mL of 1 mol/L phosphoric acid was added to each well in coloring developing reaction. The absorbance of the reaction solution at 450 nm wavelength was measured.
In the same manner as above except the test compound was not used, the ELISA Method was performed and this was used as a control group.
Using various concentrations of GDNF (Promega), ELISA Method was performed in the same manner as above and standard line was prepared.
From the aforementioned absorbance and standard line, GDNF content in a sample was calculated and the concentration (EC50), which causes 50% increase of GDNF relative to the control group was calculated from the regression line.

PC12 cells = experiment: neuroprotective action (neurite network formation) in PC12 cells; type: cell-based; settings: test compound 0.3-3.0 μmol/L, two days, DMEM with 0.5% FCS and 2 ng/mL NGF; observed under a microscope
Experimental: Using PC12 cells, the neuroprotective action of the compound of the present invention was evaluated.
PC12 cells were precultured for one day in a DMEM (Dulbecco's Modified Eagle's Medium) culture solution containing 10% FCS (Fetal Calf Serum) in an incubator at 37° C., 5% CO2, and seeded at 5×10^3/well in a 24 well plate (Falcon) in the same medium. After the cells adhered to the bottom surface, the culture was changed to a DMEM culture solution containing 0.5% FCS and 2 ng/mL of NGF (Wako Pure Chemical Industries, Ltd.). After culturing overnight, the test compound was added at a concentration of 0.3-3.0 μmol/L and the cells were cultured for two more days. Gultalaldehyde was added to the cultured to a final concentration of 2% and the cells were fixed for 1 hr., after which stained with a Diff-Quick (International Reagents Corporation). The cells were washed, dried with air and observed under a microscope.

SMILES	EC50 (rat C6 glioma cells)	melting point	formation of neurite network (PC12 cells)
CCS(=O)(=O)Cc1ccc(NC(=O)/C=C/c2cnn(C)c2-c2ccc(F)cc2)cc1 [Example 223, (2E)-N-{4-[(Ethylsulfonyl)methyl]phenyl}-3-[5-(4-fluorophenyl)-1-methyl-1H-pyrazol-4-yl]acrylamide]	36 nM	257 to 258 °C	promoted formation of neurite network
Cn1ncc(/C=C/C(=O)Nc2ccc(Cn3cnc4ccccc43)cc2)c1-c1ccc(F)cc1 [Example 185, (2E)-N-[4-(1H-Benzimidazol-1-ylmethyl)phenyl]-3-[5-(4-fluorophenyl)-1-methyl-1H-pyrazol-4-yl]acrylamide]	300 nM	243 to 244 °C	promoted formation of neurite network
Cn1ncc(/C=C/C(=O)Nc2ccc(CS(C)(=O)=O)cc2)c1-c1ccc(F)cc1 [Example 222, (2E)-3-[5-(4-fluorophenyl)-1-methyl-1H-pyrazol-4-yl]-N-(4-[(methylsulfonyl)methyl]phenyl)acrylamide]	120 nM	251 to 252 °C	promoted formation of neurite network
CCOP(=O)(Cc1ccc(NC(=O)/C=C/c2cnn(C)c2-c2cccs2)cc1)OCC [Example 149, Diethyl [4-({(2E)-3-[1-methyl-5-(2-thienyl)-1H-pyrazol-4-yl]prop-2-enoyl}amino)benzyl]phosphonate]	510 nM	262 to 263 °C	promoted formation of neurite network

Further compounds by falling EC50 (rat C6 glioma cells), results first:

EC50 (rat C6 glioma cells)	melting point	SMILES	formation of neurite network (PC12 cells)
800 nM	149 to 150 °C	Cn1ncc(/C=C/C(=O)Nc2ccc(CC3SC(=O)NC3=O)cc2)c1-c1ccc(F)cc1 (stereo not drawn) [Example 60, (2E)-N-{4-[(2,4-Dioxo-1,3-thiazolidin-5-yl)methyl]phenyl}-3-[5-(4-fluorophenyl)-1-methyl-1H-pyrazol-4-yl]acrylamide]	promoted formation of neurite network
540 nM	202 to 203 °C	Cn1ncc(/C=C/C(=O)Nc2ccc(CN3CCOCC3)cc2)c1-c1ccc(F)cc1 [Example 192, (2E)-3-[5-(4-Fluorophenyl)-1-methyl-1H-pyrazol-4-yl]-N-[4-(4-morpholinylmethyl)phenyl]acrylamide]	promoted formation of neurite network
